The assay is described as follows: Inhibitory activity against Bacterial Tyrosyl tRNA Synthetase.

The structures appear in SMILES notation. Peptide text beside a SMILES is read from it.

The IC50 is the point on the concentration scale where inhibition reaches its midpoint. High values mean a need for much substance, low ones inhibition by little substance. In turn, `CCOC(=O)[C@H](NC(=O)[C@@H](N)Cc1ccc(O)cc1)[C@@H]1CC[C@H](O)[C@H](O)[C@H]1O` [(R)-[(S)-2-Amino-3-(4-hydroxy-phenyl)-propionylamino]-((1S,2S,3S,4S)-2,3,4-trihydroxy-cyclohexyl)-acetic acid ethyl ester] came in with an IC50 greater than 3 µM.
In the case of `CCOC(=O)[C@H](NC(=O)[C@@H](N)Cc1ccc(O)cc1)[C@@H]1C=C[C@H](O)[C@H](O)[C@H]1O` [(R)-[(S)-2-Amino-3-(4-hydroxy-phenyl)-propionylamino]-((1S,4S,5S,6S)-4,5,6-trihydroxy-cyclohex-2-enyl)-acetic acid ethyl ester], the midpoint of inhibition, the IC50, lay at 0.124 µM.
Consider `CCOC(=O)[C@@H](NC(=O)[C@@H](N)Cc1ccc(O)cc1)[C@@H]1CC[C@H](O)[C@H](O)[C@H]1O` [(S)-[(S)-2-Amino-3-(4-hydroxy-phenyl)-propionylamino]-((1S,2S,3S,4S)-2,3,4-trihydroxy-cyclohexyl)-acetic acid ethyl ester], for which the concentration for half-maximal inhibition (IC50) came out at 0.245 µM.
As to `CCOC(=O)[C@@H](NC(=O)[C@@H](N)Cc1ccc(O)cc1)[C@@H]1C=C[C@H](O)[C@H](O)[C@H]1O` [(S)-[(S)-2-Amino-3-(4-hydroxy-phenyl)-propionylamino]-((1S,4S,5S,6S)-4,5,6-trihydroxy-cyclohex-2-enyl)-acetic acid ethyl ester], half-maximal inhibition (IC50) required 0.0034 µM.
`COC(=O)[C@@H](NC(=O)[C@@H](N)Cc1ccc(O)cc1)C1CCCCC1` [(S)-[(S)-2-Amino-3-(4-hydroxy-phenyl)-propionylamino]-cyclohexyl-acetic acid methyl ester] (HELM PEPTIDE1{Y.[O=C([C@@H](N[*:1])C1CCCCC1)[*:2]].[CO[*:1]]}$$$$V2.0): the IC50 is greater than 3 µM.
